From ChEMBL document CHEMBL1201862, “PubChem BioAssay data set” (2004)
The source made the active and inactive calls.

Experiments:
[1] = growth inhibition of yeast DHODH-expressing 3D7 parasites – SYBR Green, dry powder samples, dose response (AID 1159570); assay type: functional, cell-based;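 also: parasite growth measured after 72 hours of compound exposure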
[2] = toxicity to human HepG2 hepatoma cells – cell-based, plate reader, dry powder samples, cytotoxicity control, dose response (AID 1159569); assay type: functional;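 also: inhibitor potency with signal falling toward the positive control level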
[3] = P. falciparum Dd2 growth inhibitors, dose response, SYBR Green, cherry-picked samples (AID 1159567); assay type: functional, cell-based
[4] = Dd2 malaria parasite growth inhibition potency – SYBR Green, dry powder samples, dose response (AID 1159566); assay type: functional, cell-based;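 also: potency for growth inhibition with lower SYBR green DNA signal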
[5] = growth inhibition of PfATP4-mutant resistant parasites – NITD609-resistant line, SYBR Green, dry powder, dose response (AID 1159571); assay type: functional, cell-based;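 also: parasites synchronized at ring stage by sorbitol before testing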
Aminopeptidase N = molecular target: T1, Aminopeptidase N (Plasmodium falciparum FcB1/Columbia, UniProt O96935); assay: malaria alanyl aminopeptidase activity blockers – biochemical, fluorogenic H-Leu-NHMec substrate, 1536-well (AID 1445); parameters: species or system Plasmodium falciparum 3D7, 3D7
T1 sequence (O96935 whole entry): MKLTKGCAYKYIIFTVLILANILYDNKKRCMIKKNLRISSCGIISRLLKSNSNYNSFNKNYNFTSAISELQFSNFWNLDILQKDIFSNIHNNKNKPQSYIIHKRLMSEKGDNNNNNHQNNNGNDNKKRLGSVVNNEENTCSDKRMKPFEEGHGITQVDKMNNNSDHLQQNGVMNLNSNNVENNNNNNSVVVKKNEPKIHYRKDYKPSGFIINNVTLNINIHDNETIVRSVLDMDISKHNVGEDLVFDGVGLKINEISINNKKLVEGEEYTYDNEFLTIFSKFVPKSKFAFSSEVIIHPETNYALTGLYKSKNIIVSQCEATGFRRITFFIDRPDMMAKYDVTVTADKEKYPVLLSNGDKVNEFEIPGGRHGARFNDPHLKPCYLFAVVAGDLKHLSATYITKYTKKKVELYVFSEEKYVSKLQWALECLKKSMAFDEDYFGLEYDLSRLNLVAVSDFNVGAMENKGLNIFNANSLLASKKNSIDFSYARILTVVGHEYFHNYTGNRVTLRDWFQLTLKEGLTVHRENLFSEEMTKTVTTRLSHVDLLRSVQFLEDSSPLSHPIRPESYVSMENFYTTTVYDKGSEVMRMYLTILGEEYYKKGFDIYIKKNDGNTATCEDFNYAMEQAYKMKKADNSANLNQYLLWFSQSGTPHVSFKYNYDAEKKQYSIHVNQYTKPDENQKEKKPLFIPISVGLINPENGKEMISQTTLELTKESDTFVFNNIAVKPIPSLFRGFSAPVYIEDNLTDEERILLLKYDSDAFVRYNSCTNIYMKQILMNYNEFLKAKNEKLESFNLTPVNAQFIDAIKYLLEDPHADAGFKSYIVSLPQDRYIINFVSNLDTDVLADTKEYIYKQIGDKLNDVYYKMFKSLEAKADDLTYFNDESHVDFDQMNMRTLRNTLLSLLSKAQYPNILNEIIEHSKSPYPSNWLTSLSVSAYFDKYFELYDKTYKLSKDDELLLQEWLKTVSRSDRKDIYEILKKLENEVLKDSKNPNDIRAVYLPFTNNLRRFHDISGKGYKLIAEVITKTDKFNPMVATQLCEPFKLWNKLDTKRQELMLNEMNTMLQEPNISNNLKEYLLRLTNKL

HEK293 [6] = assay: cells; assay type: functional, cell-based; settings: Homo sapiens
HEK293 [7] = assay: cells; assay type: functional, cell-based; settings: Homo sapiens; remark: listed apart in the source
HEK293 [8] = assay: NOD2 signaling inhibitors in MDP-stimulated cells, cell-based, uHTS, luminescence (AID 2001); assay type: functional; settings: Homo sapiens
[9] = molecular target: T2, Calpain-2 catalytic subunit (Sus scrofa, UniProt P43367); assay: m-calpain protease blockers, concentration series – biochemical, fluorogenic peptide substrate, dose response (AID 1420); assay type: functional
T2 sequence (P43367 whole entry): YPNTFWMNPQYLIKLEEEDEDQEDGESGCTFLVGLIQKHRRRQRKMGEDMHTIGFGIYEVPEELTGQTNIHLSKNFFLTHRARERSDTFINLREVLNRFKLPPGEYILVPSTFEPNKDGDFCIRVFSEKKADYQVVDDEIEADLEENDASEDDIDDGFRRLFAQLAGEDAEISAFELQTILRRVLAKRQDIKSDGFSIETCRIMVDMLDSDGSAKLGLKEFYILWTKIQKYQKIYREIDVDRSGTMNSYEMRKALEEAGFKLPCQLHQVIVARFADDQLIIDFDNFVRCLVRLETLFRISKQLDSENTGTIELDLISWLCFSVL

Genome polyprotein = Genome polyprotein (dengue virus type 2, UniProt P29990); assay: flavivirus cap methylation enzyme inhibition – biochemical, confirmation dose response, primary screen (AID 588689); assay type: functional
Chain of Genome polyprotein (P29990 2492-3391 limits assumed): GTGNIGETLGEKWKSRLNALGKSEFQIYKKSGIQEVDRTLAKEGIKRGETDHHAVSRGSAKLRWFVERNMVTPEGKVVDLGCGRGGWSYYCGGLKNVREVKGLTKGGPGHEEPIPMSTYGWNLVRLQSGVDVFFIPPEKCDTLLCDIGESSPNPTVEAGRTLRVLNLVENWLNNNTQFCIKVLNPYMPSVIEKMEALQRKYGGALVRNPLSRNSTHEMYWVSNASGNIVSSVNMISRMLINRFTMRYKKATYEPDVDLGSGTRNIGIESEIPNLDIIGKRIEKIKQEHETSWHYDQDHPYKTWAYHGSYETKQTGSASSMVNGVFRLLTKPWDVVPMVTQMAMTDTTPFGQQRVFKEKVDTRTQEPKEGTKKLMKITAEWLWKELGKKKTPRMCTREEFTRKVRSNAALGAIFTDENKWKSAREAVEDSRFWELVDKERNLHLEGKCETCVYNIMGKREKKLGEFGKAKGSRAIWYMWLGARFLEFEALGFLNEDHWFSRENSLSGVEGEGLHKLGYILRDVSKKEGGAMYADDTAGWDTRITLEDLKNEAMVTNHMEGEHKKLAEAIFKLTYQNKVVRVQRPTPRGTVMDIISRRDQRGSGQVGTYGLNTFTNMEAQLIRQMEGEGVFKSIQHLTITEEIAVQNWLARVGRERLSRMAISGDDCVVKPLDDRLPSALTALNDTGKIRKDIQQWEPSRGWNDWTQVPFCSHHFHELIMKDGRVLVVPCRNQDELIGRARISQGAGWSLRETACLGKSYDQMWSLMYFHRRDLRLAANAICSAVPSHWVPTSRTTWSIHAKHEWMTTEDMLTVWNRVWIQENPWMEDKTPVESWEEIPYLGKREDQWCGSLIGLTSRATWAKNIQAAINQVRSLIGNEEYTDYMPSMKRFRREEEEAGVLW

Cytochrome P450 2D6 = Cytochrome P450 2D6 (Homo sapiens, UniProt P10635);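 also: CYP2D6 member of a cytochrome P450 panel assay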
Chain of Cytochrome P450 2D6 (P10635 whole entry): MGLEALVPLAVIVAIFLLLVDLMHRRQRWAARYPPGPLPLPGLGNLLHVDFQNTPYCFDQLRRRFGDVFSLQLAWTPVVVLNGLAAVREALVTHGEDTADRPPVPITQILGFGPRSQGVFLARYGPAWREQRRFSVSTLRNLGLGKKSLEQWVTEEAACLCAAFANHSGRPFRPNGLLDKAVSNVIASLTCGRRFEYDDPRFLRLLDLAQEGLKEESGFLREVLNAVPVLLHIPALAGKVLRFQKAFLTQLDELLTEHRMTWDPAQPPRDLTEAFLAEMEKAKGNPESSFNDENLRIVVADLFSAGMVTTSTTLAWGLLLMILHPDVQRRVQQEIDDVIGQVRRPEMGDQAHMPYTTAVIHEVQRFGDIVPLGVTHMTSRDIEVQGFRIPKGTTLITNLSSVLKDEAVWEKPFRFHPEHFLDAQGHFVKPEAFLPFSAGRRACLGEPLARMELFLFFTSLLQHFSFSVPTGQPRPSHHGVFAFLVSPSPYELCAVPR

Cytochrome P450 1A2 = molecular target: T3, Cytochrome P450 1A2 (Homo sapiens, UniProt P05177);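 also: PubChem cytochrome P450 panel assay, CYP1A2 panel member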
T3 sequence (P05177 whole entry): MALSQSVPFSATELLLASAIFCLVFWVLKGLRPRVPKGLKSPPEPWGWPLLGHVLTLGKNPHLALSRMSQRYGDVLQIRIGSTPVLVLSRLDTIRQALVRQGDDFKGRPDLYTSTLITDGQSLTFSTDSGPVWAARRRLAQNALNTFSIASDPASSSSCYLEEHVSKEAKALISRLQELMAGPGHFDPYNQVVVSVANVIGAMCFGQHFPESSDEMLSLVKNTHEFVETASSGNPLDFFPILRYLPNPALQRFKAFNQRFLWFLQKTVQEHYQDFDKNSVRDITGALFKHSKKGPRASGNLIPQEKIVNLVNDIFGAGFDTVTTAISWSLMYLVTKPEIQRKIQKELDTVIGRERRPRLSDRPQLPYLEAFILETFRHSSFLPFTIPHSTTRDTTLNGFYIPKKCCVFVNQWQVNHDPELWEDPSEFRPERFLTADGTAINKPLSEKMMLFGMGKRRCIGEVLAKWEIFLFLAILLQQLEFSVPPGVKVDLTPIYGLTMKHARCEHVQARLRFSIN

[10] = viability inhibitors of stage V gametocytes – luminescence, dose response (AID 1117278); assay type: functional, cell-based;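 also: gametocytes exposed to compound for 24 hours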
[11] = viability loss in human Jurkat cells – cell-based, luminescence, cytotoxicity control for P. falciparum gametocyte viability project, dose response (AID 1117277); assay type: functional;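 also: potency reflects loss of cellular ATP meaning fewer viable cells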
Prothrombin = Prothrombin (Homo sapiens, UniProt P00734); assay: Thrombin 1536 HTS Dose Response Confirmation. [Related pubchem assays: 1046 (Thrombin 1536 HTS; hits were confirmed in this assay)]; assay type: functional
Paired box protein Pax-8 = Paired box protein Pax-8 (Homo sapiens, UniProt Q06710); assay: PAX8 transcriptional activity inhibition in RMG-I – RMG-I cells, luciferase, cherry-pick, dose response (AID 687027); assay type: functional, cell-based;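 also: luciferase reporter driven by Pax8 target thyroperoxidase promoter measured by SteadyGlo luminescence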
Chain of Paired box protein Pax-8 (Q06710 whole entry): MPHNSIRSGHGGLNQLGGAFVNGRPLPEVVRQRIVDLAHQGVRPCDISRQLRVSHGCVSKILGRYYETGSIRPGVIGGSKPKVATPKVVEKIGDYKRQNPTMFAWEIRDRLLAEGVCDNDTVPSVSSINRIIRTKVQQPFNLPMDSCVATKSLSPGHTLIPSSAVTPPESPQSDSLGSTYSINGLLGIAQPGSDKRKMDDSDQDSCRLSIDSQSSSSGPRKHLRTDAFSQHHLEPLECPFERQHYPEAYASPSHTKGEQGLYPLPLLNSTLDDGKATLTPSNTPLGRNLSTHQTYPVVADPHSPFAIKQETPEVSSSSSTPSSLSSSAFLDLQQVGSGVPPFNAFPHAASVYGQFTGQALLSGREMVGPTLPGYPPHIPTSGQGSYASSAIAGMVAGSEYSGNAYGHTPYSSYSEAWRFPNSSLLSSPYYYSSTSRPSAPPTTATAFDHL

[12] = A2780 cell killing – plate reader, dry powder samples, cytotoxicity control, dose response (AID 743046); assay type: functional, cell-based
[13] = OVCAR-3 cell viability loss – plate reader, dry powder samples, PAX8 inhibitor project, dose response (AID 743044); assay type: functional, cell-based
[14] = IGROV1 cell killing – plate reader, dry powder samples, PAX8 inhibitor project, dose response (AID 743043); assay type: functional, cell-based; settings: IGROV-1
[15] = OVCAR8 cell viability loss – plate reader, dry powder samples, PAX8 project, dose response (AID 743197); assay type: functional, cell-based; settings: OVCAR-8
[16] = A cytotoxicity screen of small molecule inhibitors of the PhoP region in Salmonella typhi identified in the primary screen. [Related pubchem assays: 1850, 1864, 1985 ]; assay type: functional
[17] = molecular target: T4, Mannose-6-phosphate isomerase (Homo sapiens, UniProt P34949); assay: MPI inhibition at elevated mannose 6-phosphate – biochemical, fluorescence intensity, high mannose 6-phosphate, primary screen (AID 1220)
T4 sequence (P34949 whole entry): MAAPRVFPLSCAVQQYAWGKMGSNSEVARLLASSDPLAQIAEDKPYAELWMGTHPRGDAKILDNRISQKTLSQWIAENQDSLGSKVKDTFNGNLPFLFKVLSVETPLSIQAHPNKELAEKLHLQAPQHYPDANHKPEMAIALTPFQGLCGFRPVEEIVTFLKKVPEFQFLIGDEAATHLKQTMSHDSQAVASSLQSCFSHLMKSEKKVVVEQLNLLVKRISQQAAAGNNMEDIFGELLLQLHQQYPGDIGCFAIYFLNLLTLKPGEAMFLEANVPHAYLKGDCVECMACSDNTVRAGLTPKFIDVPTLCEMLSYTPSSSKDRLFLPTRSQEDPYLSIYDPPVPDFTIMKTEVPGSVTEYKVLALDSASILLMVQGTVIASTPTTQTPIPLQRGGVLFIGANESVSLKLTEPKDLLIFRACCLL

[18] = molecular target: Glucose-6-phosphate 1-dehydrogenase (Homo sapiens, UniProt P11413); assay: inhibition of Homo sapiens G6PD, dose series – biochemical, fluorescence, selectivity assay for P. falciparum G6PD inhibitor project, dose response (AID 504792); assay type: functional
Chain of Glucose-6-phosphate 1-dehydrogenase (P11413 whole entry): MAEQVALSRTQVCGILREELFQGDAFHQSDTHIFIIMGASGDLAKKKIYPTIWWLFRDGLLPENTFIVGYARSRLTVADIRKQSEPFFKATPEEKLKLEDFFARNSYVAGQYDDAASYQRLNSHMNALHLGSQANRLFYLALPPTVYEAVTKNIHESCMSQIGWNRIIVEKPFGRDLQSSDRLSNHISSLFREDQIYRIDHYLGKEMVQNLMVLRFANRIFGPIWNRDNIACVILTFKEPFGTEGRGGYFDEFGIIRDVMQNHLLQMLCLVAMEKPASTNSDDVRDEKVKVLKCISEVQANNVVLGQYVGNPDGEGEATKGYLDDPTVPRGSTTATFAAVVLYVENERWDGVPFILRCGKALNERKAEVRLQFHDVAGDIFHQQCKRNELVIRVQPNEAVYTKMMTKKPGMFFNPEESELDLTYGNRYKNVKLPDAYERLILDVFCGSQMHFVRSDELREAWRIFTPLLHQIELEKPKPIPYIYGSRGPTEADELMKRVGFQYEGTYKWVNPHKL

[19] = molecular target: T5, Polyadenylate-binding protein 1 (Homo sapiens, UniProt P11940); assay: MLLE binding blockers, Cy5 peptide tracer – biochemical, fluorescence polarization, Cy5-PAM2 peptide, secondary, miRNA deadenylation inhibitor project, dose response (AID 602260); assay type: functional; settings: read-out: IC50_Mean
T5 sequence (P11940 whole entry, the tested form may be a part): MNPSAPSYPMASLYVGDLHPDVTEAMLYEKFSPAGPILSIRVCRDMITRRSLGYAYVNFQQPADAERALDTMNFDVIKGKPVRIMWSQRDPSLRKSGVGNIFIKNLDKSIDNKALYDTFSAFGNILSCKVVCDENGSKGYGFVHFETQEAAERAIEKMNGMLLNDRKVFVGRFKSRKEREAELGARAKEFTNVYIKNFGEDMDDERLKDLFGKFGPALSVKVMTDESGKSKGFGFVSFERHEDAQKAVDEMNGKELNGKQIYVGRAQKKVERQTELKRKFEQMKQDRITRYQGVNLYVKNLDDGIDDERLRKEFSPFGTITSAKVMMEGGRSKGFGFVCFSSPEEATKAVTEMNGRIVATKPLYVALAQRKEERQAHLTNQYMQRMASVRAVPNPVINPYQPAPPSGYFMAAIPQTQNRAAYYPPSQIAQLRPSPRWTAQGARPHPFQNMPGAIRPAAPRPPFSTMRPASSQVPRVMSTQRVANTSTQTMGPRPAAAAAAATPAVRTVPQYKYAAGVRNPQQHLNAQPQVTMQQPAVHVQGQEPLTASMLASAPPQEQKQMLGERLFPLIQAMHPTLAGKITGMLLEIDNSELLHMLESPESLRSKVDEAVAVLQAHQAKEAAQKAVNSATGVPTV

[20] = molecular target: T5, Polyadenylate-binding protein 1; assay: MLLE domain peptide-binding blockers, IC50 – biochemical, fluorescence polarization, FITC-PAM2 peptide, dose response (AID 602259); assay type: functional; settings: read-out: IC50_Mean

C[C@@H]1CN([C@H](C)CO)C(=O)c2ccccc2-c2ccccc2CO[C@@H]1CN(C)Cc1ccc(C(F)(F)F)cc1
AC50 [1]: 3.53 µM (active)
AC50 [2]: 21.5 µM (active)
AC50 [3]: 2.16 µM (active)
AC50 [4]: 1.93 µM (active)
AC50 [5]: 1.82 µM (active)

O=S(=O)(Nc1nc(-c2sccc2Cl)cs1)c1cc(Cl)ccc1Cl
IC50 (Aminopeptidase N): 44.1 µM (active)
IC50 (HEK293 [6]): 10.4 µM (active)
IC50 (HEK293 [7]): 17.7 µM (active)
IC50 (HEK293 [8]): 7.47 µM (active)
IC50 [9]: 5 µM (not active)
IC50 (Genome polyprotein): 41.6 µM (active)
AC50 (Cytochrome P450 2D6): 28.2 µM (inconclusive)
AC50 (Cytochrome P450 1A2): 28.2 µM (inconclusive)

CCC(C)NS(=O)(=O)c1ccc(NS(C)(=O)=O)cc1 (centres undefined)
IC50 [10]: > 109 µM (inactive)
IC50 [11]: > 83.3 µM (inactive)

Cn1nnc(CC[N+](C)(C)C)n1
IC50 (Prothrombin): > 50 µM (not active)

Cc1ccc(S(=O)(=O)Nc2ccc3c(c2)C(=O)N([C@H](C)CO)C[C@@H](C)[C@@H](CN(C)CC2CCCCC2)OCCCC[C@@H](C)O3)cc1
AC50 (Paired box protein Pax-8): 5.51 µM (active)
AC50 [12]: 38.2 µM (active)
AC50 [13]: 26.5 µM (active)
AC50 [14]: 38.8 µM (active)
AC50 [15]: 40.4 µM (active)

Cc1nc(-c2ccc(C(=O)N3CCOCC3)cc2)cs1
EC50 [16]: > 50 µM (active)
IC50 [10]: > 109 µM (inactive)
IC50 [11]: > 83.3 µM (inactive)

CCOC(=O)C1CCN(Cc2c(O)ccc3ccccc23)CC1
IC50 [17]: > 50 µM (not active)

Cc1ccccc1/N=C/c1cccc(O)c1O
IC50 [17]: 11.2 µM (active)

Cc1ccc(C(=O)N2C(CC(=O)Nc3ccc(Cl)cc3)C(=O)NC3CCCCC32)cc1 (centres undefined)
IC50 (Prothrombin): 3.25 µM (active)

Cc1ccc(-c2nc(N)s[n+]2-c2ccccc2)cc1
IC50 [17]: 4.91 µM (active)
IC50 [18]: 27.2 µM (inactive)
IC50 [19]: > 66 µM (inactive)
IC50 [20]: > 66 µM (inactive)

COc1ccc(/C=C/c2c(-c3ccc(OC)cc3)oc3cccnc23)cc1
IC50 [10]: > 109 µM (inactive)
IC50 [11]: > 83.3 µM (inactive)

COc1ccc(NC(=O)N(C)C[C@H]2Oc3cc(C#CCC(C)C)ccc3S(=O)(=O)N([C@H](C)CO)C[C@H]2C)cc1
AC50 [1]: 1.5 µM (active)
AC50 [2]: 38.3 µM (active)
AC50 [3]: 1.3 µM (active)
AC50 [4]: 1.21 µM (active)
AC50 [5]: 1.7 µM (active)

O=C(COc1ccc([N+](=O)[O-])cc1)Nc1ccc(CN2CCOCC2)cc1
IC50 [9]: 41.1 µM (not active)
